Reference: PMC5858560 (Toxicology and applied pharmacology, 2011)
pIC50: −log10 of the molar value.

Key:
human iPSC-CMs [1] = test: ATP depletion; type: cell-based; details: for attenuation of sunitinib-mediated ATP depletion: 3 h pretreatment with 1 or 2 mM, then 8 to 31 µM sunitinib for 24 h; for TC50 based on dose–response data for ATP depletion: human iPSC-CMs, 24 h treatment; for depletion of ATP: 31 µM sunitinib
human iPSC-CMs [2] = test: Caspase 3/7 cleavage; type: cell-based; details: for maximal attenuation of caspase 3/7 cleavage: 23 µM sunitinib 24 h
human iPSC-CMs [3] = test: GSH oxidation; type: cell-based
human iPSC-CMs [4] = test: Microelectrode array; type: cell-based; details: MEA; for change of beat rate from baseline: up to 2 mM
human iPSC-CMs [5] = test: LDH release in iCell cardiomyocytes; type: cell-based
pACC-S79, pAMPK-T172 = test: Western blot of AMPK/ACC signaling in iCell cardiomyocytes; type: cell-based, human; details: iPSC-CMs; for phosphorylation status of AMPKα-Thr172 and ACC-Ser79: 1 or 2 mM for 3 h
human iPSC-CMs [6] = test: Cytotoxicity dose response; type: cell-based; details: for concentration without cytotoxicity (no ATP depletion or LDH release): 4 to 250 µM tested, 24 h
Nav1.5 channel = Nav1.5 channel (Homo sapiens, UniProt Q14524); test: PatchXpress Nav1.5 channel assay in CHL-Nav1.5 cells; type: cell-based; details: read-out: IC50 of Nav1.5 channel inhibition
ERBB2 = ERBB2 (Homo sapiens, UniProt P04626); test: KINOMEscan; type: binding; details: read-out: % Inhibition AMBIT, ERBB2
PDGFR-alpha = PDGFR-alpha (Homo sapiens, UniProt P16234); test: KINOMEscan; type: binding; details: read-out: % Inhibition AMBIT, PDGFR-alpha
RAF = RAF (Homo sapiens, UniProt P04049); test: KINOMEscan; type: binding; details: read-out: % Inhibition AMBIT, RAF
FLT4 = FLT4 (Homo sapiens, UniProt P35916); test: KINOMEscan; type: binding; details: read-out: % Inhibition AMBIT, FLT4
FLT4, sequence (P35916 25-1363): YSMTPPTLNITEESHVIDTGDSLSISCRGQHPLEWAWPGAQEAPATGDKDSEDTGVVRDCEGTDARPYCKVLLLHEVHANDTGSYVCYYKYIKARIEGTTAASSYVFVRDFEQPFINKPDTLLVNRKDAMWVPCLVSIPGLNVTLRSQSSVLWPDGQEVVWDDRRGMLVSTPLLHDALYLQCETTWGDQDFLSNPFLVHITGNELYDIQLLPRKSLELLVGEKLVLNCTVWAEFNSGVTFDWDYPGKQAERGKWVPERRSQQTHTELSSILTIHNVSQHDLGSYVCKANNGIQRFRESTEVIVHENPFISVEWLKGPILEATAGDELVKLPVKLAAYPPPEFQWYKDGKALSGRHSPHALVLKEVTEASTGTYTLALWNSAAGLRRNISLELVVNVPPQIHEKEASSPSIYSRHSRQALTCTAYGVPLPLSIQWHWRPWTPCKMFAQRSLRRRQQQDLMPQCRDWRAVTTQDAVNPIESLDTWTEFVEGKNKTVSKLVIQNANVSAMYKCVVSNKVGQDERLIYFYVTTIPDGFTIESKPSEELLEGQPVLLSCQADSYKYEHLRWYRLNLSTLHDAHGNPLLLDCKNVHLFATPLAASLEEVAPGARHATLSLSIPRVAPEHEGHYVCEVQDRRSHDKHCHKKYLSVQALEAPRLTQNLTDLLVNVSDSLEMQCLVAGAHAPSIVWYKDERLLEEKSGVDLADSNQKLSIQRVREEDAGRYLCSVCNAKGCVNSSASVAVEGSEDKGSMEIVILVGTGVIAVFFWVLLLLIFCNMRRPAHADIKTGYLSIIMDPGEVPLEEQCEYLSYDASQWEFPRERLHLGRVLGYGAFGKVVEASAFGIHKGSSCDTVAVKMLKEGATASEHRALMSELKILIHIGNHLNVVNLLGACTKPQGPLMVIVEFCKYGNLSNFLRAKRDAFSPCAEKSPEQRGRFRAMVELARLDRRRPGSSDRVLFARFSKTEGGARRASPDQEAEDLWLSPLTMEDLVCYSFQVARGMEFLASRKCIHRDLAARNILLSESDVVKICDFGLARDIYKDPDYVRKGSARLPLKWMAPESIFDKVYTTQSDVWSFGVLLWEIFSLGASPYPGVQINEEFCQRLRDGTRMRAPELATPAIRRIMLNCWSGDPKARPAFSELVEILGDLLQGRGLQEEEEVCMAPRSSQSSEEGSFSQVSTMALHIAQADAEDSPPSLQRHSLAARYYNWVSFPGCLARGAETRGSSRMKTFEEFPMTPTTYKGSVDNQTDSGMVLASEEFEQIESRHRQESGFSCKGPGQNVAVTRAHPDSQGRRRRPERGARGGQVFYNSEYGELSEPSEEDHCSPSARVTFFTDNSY

PLK3 = PLK3 (Homo sapiens, UniProt Q9H4B4); test: KINOMEscan; type: binding; details: read-out: % Inhibition AMBIT, PLK3
PLK1 = PLK1 (Homo sapiens, UniProt P53350); test: KINOMEscan; type: binding; details: read-out: % Inhibition AMBIT, PLK1
GSK3A = GSK3A (Homo sapiens, UniProt P49840); test: KINOMEscan; type: binding; details: read-out: % Inhibition AMBIT, GSK3A
ERBB4 = ERBB4 (Homo sapiens, UniProt Q15303); test: KINOMEscan; type: binding; details: read-out: % Inhibition AMBIT, ERBB4
PIM2 = PIM2 (Homo sapiens, UniProt Q9P1W9); test: KINOMEscan; type: binding; details: read-out: % Inhibition AMBIT, PIM2
AMPK-alpha1 = AMPK-alpha1 (Homo sapiens, UniProt Q13131); test: KINOMEscan; type: binding; details: read-out: % Inhibition AMBIT, AMP_K-alpha1
PLK4 = PLK4 (Homo sapiens, UniProt O00444); test: KINOMEscan; type: binding; details: read-out: % Inhibition AMBIT, PLK4
PLK4, sequence (O00444 whole entry): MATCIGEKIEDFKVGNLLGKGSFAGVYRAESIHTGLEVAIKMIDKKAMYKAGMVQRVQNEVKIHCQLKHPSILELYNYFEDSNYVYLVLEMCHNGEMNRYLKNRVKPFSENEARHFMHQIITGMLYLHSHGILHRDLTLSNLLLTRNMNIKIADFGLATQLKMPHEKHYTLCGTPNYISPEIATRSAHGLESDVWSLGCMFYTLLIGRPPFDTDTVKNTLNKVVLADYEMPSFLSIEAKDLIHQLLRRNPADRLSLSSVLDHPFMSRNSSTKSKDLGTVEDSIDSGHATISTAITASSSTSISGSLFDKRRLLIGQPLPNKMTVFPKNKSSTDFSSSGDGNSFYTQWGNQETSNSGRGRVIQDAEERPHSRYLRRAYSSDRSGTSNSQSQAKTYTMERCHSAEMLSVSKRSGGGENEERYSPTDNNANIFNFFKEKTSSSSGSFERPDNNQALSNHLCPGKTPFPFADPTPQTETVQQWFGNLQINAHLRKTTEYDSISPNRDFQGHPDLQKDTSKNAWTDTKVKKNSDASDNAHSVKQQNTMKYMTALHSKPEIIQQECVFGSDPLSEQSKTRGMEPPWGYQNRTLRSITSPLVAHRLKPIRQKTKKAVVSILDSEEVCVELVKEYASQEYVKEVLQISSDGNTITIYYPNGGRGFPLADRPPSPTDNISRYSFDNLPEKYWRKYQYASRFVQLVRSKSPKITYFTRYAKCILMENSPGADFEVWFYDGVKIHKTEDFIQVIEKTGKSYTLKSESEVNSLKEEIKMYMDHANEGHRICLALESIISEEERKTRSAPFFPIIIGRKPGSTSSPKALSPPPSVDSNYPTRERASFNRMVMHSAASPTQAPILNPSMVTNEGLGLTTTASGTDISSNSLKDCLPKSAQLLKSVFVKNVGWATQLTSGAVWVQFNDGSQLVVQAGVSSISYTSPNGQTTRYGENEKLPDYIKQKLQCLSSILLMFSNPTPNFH

RSK1/2/4 = test: 10 µM AMBIT screen; type: binding
MAP3K5 (ASK1) = MAP3K5 (ASK1) (Homo sapiens, UniProt Q99683); test: KINOMEscan; type: binding; details: read-out: % Inhibition AMBIT, MAP3K5 (ASK1)
ROCK2 = ROCK2 (Homo sapiens, UniProt O75116); test: KINOMEscan; type: binding; details: read-out: % Inhibition AMBIT, ROCK2
FLT1 = FLT1 (Homo sapiens, UniProt P17948); test: KINOMEscan; type: binding; details: read-out: % Inhibition AMBIT, FLT1
MAPK/ERK2 = MAPK/ERK2 (Homo sapiens, UniProt P28482); test: KINOMEscan; type: binding; details: read-out: % Inhibition AMBIT, MAPK/ERK2
RPS6KA6 (Kin. Dom.1) = RPS6KA6 (Kin. Dom.1) (Homo sapiens, UniProt Q9UK32); test: KINOMEscan; type: binding; details: read-out: % Inhibition AMBIT, RPS6KA6 (Kin. Dom.1)
RPS6KA6 (Kin. Dom.2) = RPS6KA6 (Kin. Dom.2) (Homo sapiens, UniProt Q9UK32); test: KINOMEscan; type: binding; details: read-out: % Inhibition AMBIT, RPS6KA6 (Kin. Dom.2)
GSK3B = GSK3B (Homo sapiens, UniProt P49841); test: KINOMEscan; type: binding; details: read-out: % Inhibition AMBIT, GSK3B
GSK3B, sequence (P49841 whole entry): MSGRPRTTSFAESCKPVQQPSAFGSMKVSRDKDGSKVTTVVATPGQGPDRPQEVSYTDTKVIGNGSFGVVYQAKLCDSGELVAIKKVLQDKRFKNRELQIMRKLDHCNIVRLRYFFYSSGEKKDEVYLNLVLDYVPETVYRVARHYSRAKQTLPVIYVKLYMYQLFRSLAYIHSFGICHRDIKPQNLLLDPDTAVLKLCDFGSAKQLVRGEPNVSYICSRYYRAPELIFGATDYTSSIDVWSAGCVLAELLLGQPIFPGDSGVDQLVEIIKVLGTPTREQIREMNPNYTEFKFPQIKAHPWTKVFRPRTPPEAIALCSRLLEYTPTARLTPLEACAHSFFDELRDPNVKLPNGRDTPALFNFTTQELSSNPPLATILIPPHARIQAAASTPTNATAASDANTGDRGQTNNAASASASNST

AURORA A KINASE = AURORA A KINASE (Homo sapiens, UniProt O14965); test: KINOMEscan; type: binding; details: read-out: % Inhibition AMBIT, AURORA A KINASE
AURORA A KINASE, sequence (O14965 whole entry): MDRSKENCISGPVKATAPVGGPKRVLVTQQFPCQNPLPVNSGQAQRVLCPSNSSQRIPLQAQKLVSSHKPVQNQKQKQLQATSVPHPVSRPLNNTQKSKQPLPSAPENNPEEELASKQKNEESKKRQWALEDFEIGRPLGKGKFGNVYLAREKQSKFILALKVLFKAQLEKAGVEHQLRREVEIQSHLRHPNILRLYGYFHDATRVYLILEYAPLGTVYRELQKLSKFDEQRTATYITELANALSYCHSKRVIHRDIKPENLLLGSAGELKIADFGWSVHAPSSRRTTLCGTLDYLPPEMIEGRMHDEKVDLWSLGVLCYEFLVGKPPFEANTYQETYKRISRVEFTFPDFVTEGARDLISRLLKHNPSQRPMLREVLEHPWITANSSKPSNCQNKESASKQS

AURORA C KINASE = AURORA C KINASE (Homo sapiens, UniProt Q9UQB9); test: KINOMEscan; type: binding; details: read-out: % Inhibition AMBIT, AURORA C KINASE
317 kinases = details: at 0.1 µM; ref Karaman et al., 2008; cited from earlier work
RPS6KA4 (Kin. Dom.2) = RPS6KA4 (Kin. Dom.2) (Homo sapiens, UniProt O75676); test: KINOMEscan; type: binding; details: read-out: % Inhibition AMBIT, RPS6KA4 (Kin. Dom.2)
RPS6KA1 (Kin. Dom.1) = RPS6KA1 (Kin. Dom.1) (Homo sapiens, UniProt Q15418); test: KINOMEscan; type: binding; details: read-out: % Inhibition AMBIT, RPS6KA1 (Kin. Dom.1)
RPS6KA1 (Kin. Dom.1), sequence (Q15418 1-391 limits assumed): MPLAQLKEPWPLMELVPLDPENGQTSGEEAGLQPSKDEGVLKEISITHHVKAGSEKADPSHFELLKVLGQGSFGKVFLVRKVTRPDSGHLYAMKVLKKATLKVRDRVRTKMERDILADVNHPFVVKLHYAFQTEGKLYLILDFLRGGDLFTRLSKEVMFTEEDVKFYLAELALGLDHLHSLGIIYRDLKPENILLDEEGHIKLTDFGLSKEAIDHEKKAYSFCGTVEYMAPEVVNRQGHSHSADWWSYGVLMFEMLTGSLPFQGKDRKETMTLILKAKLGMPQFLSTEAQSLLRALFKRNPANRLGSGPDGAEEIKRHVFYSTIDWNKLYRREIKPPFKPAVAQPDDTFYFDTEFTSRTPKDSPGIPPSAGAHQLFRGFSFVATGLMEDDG

STK11 = STK11 (Homo sapiens, UniProt Q15831); test: KINOMEscan; type: binding; details: read-out: % Inhibition AMBIT, STK11
AKT3 = AKT3 (Homo sapiens, UniProt Q9Y243); test: KINOMEscan; type: binding; details: read-out: % Inhibition AMBIT, AKT3
RPS6KA4 (Kin. Dom.1) = RPS6KA4 (Kin. Dom.1) (Homo sapiens, UniProt O75676); test: KINOMEscan; type: binding; details: read-out: % Inhibition AMBIT, RPS6KA4 (Kin. Dom.1)
RPS6KA4 (Kin. Dom.1), sequence (O75676 1-371 limits assumed): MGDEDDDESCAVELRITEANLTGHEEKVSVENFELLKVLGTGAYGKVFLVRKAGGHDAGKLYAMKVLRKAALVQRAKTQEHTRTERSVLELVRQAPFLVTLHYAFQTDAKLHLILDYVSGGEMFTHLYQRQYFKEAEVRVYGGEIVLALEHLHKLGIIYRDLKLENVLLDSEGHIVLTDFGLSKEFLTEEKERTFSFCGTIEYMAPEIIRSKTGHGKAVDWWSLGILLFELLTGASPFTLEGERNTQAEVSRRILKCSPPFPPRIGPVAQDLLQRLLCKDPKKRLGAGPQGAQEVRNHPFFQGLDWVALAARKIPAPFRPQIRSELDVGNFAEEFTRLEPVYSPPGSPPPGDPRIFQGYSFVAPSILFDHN

BRAF = BRAF (Homo sapiens, UniProt P15056); test: KINOMEscan; type: binding; details: read-out: % Inhibition AMBIT, BRAF
PIM1 = PIM1 (Homo sapiens, UniProt P11309); test: KINOMEscan; type: binding; details: read-out: % Inhibition AMBIT, PIM1
CDK7 = CDK7 (Homo sapiens, UniProt P50613); test: KINOMEscan; type: binding; details: read-out: % Inhibition AMBIT, CDK7
CDK7, sequence (P50613 whole entry): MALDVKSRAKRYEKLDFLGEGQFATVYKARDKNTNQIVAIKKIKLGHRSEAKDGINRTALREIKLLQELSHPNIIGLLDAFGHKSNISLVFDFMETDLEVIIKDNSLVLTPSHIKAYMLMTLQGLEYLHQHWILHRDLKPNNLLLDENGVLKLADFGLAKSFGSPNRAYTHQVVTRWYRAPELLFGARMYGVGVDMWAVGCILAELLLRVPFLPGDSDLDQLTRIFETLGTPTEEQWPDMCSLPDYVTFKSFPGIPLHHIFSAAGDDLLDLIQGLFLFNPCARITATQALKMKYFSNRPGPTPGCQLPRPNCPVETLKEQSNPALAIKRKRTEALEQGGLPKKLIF

DMPK = DMPK (Homo sapiens, UniProt Q09013); test: KINOMEscan; type: binding; details: read-out: % Inhibition AMBIT, DMPK
AMPK-alpha2 = AMPK-alpha2 (Homo sapiens, UniProt P54646); test: KINOMEscan; type: binding; details: read-out: % Inhibition AMBIT, AMPK-alpha2
PDGFR-beta = PDGFR-beta (Homo sapiens, UniProt P09619); test: KINOMEscan; type: binding; details: read-out: % Inhibition AMBIT, PDGFR-beta
RSK1 = details: read-out: IC50 RSK1; kinase activity assay; ref Hasinoff et al., 2008; cited from earlier work
AURORA B KINASE = AURORA B KINASE (Homo sapiens, UniProt Q96GD4); test: KINOMEscan; type: binding; details: read-out: % Inhibition AMBIT, AURORA B KINASE
AURORA B KINASE, sequence (Q96GD4 whole entry): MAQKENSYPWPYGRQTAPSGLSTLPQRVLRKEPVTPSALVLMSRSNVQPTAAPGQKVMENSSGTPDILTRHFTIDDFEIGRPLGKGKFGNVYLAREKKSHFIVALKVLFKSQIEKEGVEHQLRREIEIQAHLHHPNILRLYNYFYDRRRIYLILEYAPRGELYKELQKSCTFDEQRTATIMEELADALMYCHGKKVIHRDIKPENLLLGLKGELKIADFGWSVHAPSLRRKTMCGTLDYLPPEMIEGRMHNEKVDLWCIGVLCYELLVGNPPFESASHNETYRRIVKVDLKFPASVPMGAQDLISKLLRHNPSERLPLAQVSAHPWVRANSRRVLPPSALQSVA

RPS6KA2 (Kin. Dom.1) = RPS6KA2 (Kin. Dom.1) (Homo sapiens, UniProt Q15349); test: KINOMEscan; type: binding; details: read-out: % Inhibition AMBIT, RPS6KA2 (Kin. Dom.1)
RPS6KA2 (Kin. Dom.1), sequence (Q15349 1-388 limits assumed): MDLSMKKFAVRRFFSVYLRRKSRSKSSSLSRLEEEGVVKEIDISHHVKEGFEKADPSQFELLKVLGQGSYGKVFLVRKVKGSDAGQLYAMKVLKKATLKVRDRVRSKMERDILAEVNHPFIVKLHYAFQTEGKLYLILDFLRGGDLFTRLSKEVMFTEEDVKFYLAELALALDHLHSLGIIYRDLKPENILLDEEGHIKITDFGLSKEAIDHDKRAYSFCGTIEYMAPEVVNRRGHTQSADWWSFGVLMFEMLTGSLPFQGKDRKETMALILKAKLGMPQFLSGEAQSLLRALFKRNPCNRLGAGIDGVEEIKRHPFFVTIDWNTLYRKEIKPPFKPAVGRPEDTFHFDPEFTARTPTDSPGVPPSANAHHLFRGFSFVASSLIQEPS

[7] = 23 µM sunitinib, 24 h, iPSC-CMs
[8] = 31 µM sunitinib, 24 h, iPSC-CMs

NC(=O)c1ncn([C@@H]2O[C@H](CO)[C@@H](O)[C@H]2O)c1N [AICAR, aminoimidazole carboxamide ribonucleotide]
attenuation of sunitinib-mediated ATP depletion (human iPSC-CMs [1]): Neither AICAR (Fig. 3A) nor metformin (Fig. 3E) attenuated | maximal attenuation of caspase 3/7 cleavage (human iPSC-CMs [2]; 2 mM pretreatment 3 h): 108% | attenuation of oxidized GSH (human iPSC-CMs [3]; 1 mM pretreatment 3 h, 31 µM sunitinib 24 h): 14% | change of beat rate from baseline (human iPSC-CMs [4]): ≤ 1% | reduction of LDH release (human iPSC-CMs [5]; 1 mM pretreatment 3 h, 23 or 31 µM sunitinib 24 h): 80% | phosphorylation status of AMPKα-Thr172 and ACC-Ser79 (pACC-S79, pAMPK-T172): activated AMPK signaling

COCCNCCCn1c(C(=O)CF)c(-c2ccc(C)cc2)c2c(N)ncnc21 [RSK FMK-MEA, fluoromethylketone methoxyethylamine]
TC50 based on dose–response data for ATP depletion (human iPSC-CMs [1]): 250 µM | concentration with irregular (arrhythmic) beats (human iPSC-CMs [4]; 15 min at each concentration): 3000 nM | amplitude of the Na+-peak (human iPSC-CMs [4]; serially increasing additions): dose-dependent reduction in the amplitude of the Na^+-peak | fPDc (field-potential duration corrected by beat rate, Fridericia) (human iPSC-CMs [4]; serially increasing additions): dose-dependent prolongation of fPDc | concentration without cytotoxicity (no ATP depletion or LDH release) (human iPSC-CMs [6]): up to 62 µM | concentration without cytotoxicity (no ATP depletion or LDH release) (human iPSC-CMs [6]; listed as RSK-FMK-MEA): below 250 µM | pIC50 (Nav1.5 channel): 4.25

CN(C)C(=N)N=C(N)N [metformin]
attenuation of sunitinib-mediated ATP depletion (human iPSC-CMs [1]): Neither AICAR (Fig. 3A) nor metformin (Fig. 3E) attenuated | maximal attenuation of caspase 3/7 cleavage (human iPSC-CMs [2]; 1 mM pretreatment 3 h): 107% | reduction in oxidation of GSH (human iPSC-CMs [3]; 2 mM pretreatment 3 h, 23 µM sunitinib 24 h): 35% | change of beat rate from baseline (human iPSC-CMs [4]): ≤ 1% | maximal attenuation of LDH release (human iPSC-CMs [5]; 1 mM pretreatment 3 h, 23 µM sunitinib 24 h): 90% | phosphorylation status of AMPKα-Thr172 and ACC-Ser79 (pACC-S79, pAMPK-T172): activated AMPK signaling

CCN(CC)CCNC(=O)c1c(C)[nH]c(/C=C2\C(=O)Nc3ccc(F)cc32)c1C [sunitinib, Sunitinib]
ATP depleted compared to vehicle (human iPSC-CMs [1]; [7]): greater than 60% | depletion of ATP (human iPSC-CMs [1]; 24 h, iPSC-CMs): ~100% | depletion of ATP (human iPSC-CMs [1]; by 4.5 h, iPSC-CMs (unpublished results)): 80% | TC50 based on dose–response data for ATP depletion (human iPSC-CMs [1]): 16.7 µM | inhibition at 10 µM (ERBB2): < 50% | inhibition at 10 µM (PDGFR-alpha): 100% | inhibition at 10 µM (RAF): < 50% | inhibition at 10 µM (FLT4): 100% | inhibition at 10 µM (PLK3): < 50% | inhibition at 10 µM (PLK1): < 50% | inhibition at 10 µM (GSK3A): < 50% | inhibition at 10 µM (ERBB4): < 50% | inhibition at 10 µM (PIM2): < 50% | inhibition at 10 µM (AMPK-alpha1): 100% | inhibition at 10 µM (PLK4): 100% | inhibition of RSK1/2/4 (RSK1/2/4): 100% | inhibition at 10 µM (MAP3K5 (ASK1)): < 50% | cleavage of caspase 3/7 (human iPSC-CMs [2]; [8]): ~100% | inhibition at 10 µM (ROCK2): 97% | inhibition at 10 µM (FLT1): 100% | inhibition at 10 µM (MAPK/ERK2): < 50% | GSH oxidized compared to vehicle (human iPSC-CMs [3]; [7]): 67% | oxidation of GSH (human iPSC-CMs [3]; [8]): ~100% | amplitude of the Na+-peak (human iPSC-CMs [4]; serially increasing additions): dose-dependently reduced the amplitude of the Na^+-peak | increase in LDH release compared to vehicle (human iPSC-CMs [5]; [7]): 300% | release of LDH (human iPSC-CMs [5]; [8]): ~100% | inhibition at 10 µM (RPS6KA6 (Kin. Dom.1)): 97% | IC50 of cardiotoxicity (loss of cellular ATP, oxidized glutathione, apoptosis) (human iPSC-CMs [6]): low micromolar range | inhibition at 10 µM (RPS6KA6 (Kin. Dom.2)): < 50% | inhibition at 10 µM (GSK3B): < 50% | inhibition at 10 µM (AURORA A KINASE): < 50% | inhibition at 10 µM (AURORA C KINASE): 100% | number of kinases bound of the 317 kinases tested (317 kinases): 57 | share of the 317 kinases tested that were bound (317 kinases): 18% | inhibition at 10 µM (RPS6KA4 (Kin. Dom.2)): 99% | inhibition at 10 µM (RPS6KA1 (Kin. Dom.1)): 100% | inhibition at 10 µM (STK11): 100% | inhibition at 10 µM (AKT3): < 50% | inhibition at 10 µM (RPS6KA4 (Kin. Dom.1)): 100% | inhibition at 10 µM (BRAF): < 50% | inhibition at 10 µM (PIM1): < 50% | inhibition at 10 µM (CDK7): 100% | inhibition at 10 µM (DMPK): < 50% | inhibition at 10 µM (AMPK-alpha2): 99% | inhibition of phosphorylation of AMPK's downstream target ACC-Ser79 (pACC-S79, pAMPK-T172; 15 µM for 2 h): inhibited AMPK | phosphorylation status of ACC-S79 (pACC-S79, pAMPK-T172; 15.6 µM, 2 h): decreased the phosphorylation status of ACC-S79 | inhibition at 10 µM (PDGFR-beta): 100% | pIC50 (RSK1): […] | inhibition at 10 µM (AURORA B KINASE): 100% | inhibition at 10 µM (RPS6KA2 (Kin. Dom.1)): 100%
